We go through eight molecules from US20230143604A1, “QW DOSING OF GIP RECEPTOR AGONIST PEPTIDE COMPOUNDS AND USES THEREOF” (TAKEDA PHARMACEUTICAL COMPANY LIMITED, priority 2020, published 2023).

The nature of the data set: Solubility in phosphate buffer pH 7.4. The essentials: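 Solubility at pH 7.4 determined by stepwise addition of 200 mM phosphate buffer in 100 μL increments to 3 mg peptide, mixing briefly each time, until no insoluble material remained, then measured by liquid chromatography.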

Molecules are shown by their SMILES. Starred links: 1 amine or outer side, 2 acyl side, 3 side chain; linkers in the order of their positions; H or OH if unused. Non-standard residues stand in square brackets, D forms with d. Residues, ends and D or L forms follow the SMILES beside them. Groups on a side chain read outwards from the residue. *: point of attachment. C18 diacid = O=C(O)CCCCCCCCCCCCCCCCC(=O)*; C17 diacid = O=C(O)CCCCCCCCCCCCCCCC(=O)*; γGlu = O=C(O)[C@H](CCC(=O)[*:2])N[*:1]; NMeY = CN[C@@H](Cc1ccc(O)cc1)C(=O)O; AEEA = NCCOCCOCC(=O)O; Aib = CC(C)(N)C(=O)O A value given as a limit tells only on which side of the number the result lay.

With `CC[C@H](C)[C@H](NC(=O)[C@H](Cc1ccccc1)NC(=O)[C@@H](NC(=O)CNC(=O)[C@H](CCC(=O)O)NC(=O)C(C)(C)NC(=O)[C@H](Cc1ccc(O)cc1)NC)[C@@H](C)O)C(=O)N[C@@H](CO)C(=O)N[C@@H](CC(=O)O)C(=O)N[C@@H](Cc1ccc(O)cc1)C(=O)N[C@@H](CO)C(=O)N[C@H](C(=O)NC(C)(C)C(=O)N[C@@H](CCCCNC(=O)CNC(=O)CNC(=O)CNC(=O)CNC(=O)CNC(=O)CCCCCCCCCCCCCCCCC(=O)O)C(=O)N[C@@H](CC(=O)O)C(=O)N[C@@H](CCCNC(=N)N)C(=O)NC(C)(C)C(=O)N[C@@H](C)C(=O)N[C@@H](CCC(N)=O)C(=O)NC(C)(C)C(=O)N[C@@H](CC(=O)O)C(=O)N[C@@H](Cc1ccccc1)C(=O)N[C@H](C(=O)N[C@@H](CC(N)=O)C(=O)N[C@@H](Cc1c[nH]c2ccccc12)C(=O)N[C@@H](CC(C)C)C(=O)N[C@@H](CC(C)C)C(=O)N[C@@H](C)C(=O)N[C@@H](CCC(N)=O)C(=O)N[C@@H](CCCNC(=N)N)C(=O)N1CCC[C@H]1C(=O)N[C@@H](CO)C(=O)N[C@@H](CO)C(=O)NCC(=O)N[C@@H](C)C(=O)N1CCC[C@H]1C(=O)N1CCC[C@H]1C(=O)N1CCC[C@H]1C(=O)N[C@@H](CO)C(N)=O)C(C)C)[C@@H](C)CC` [Compound 276], the solubility (pH 7.4, aqueous buffer, pH 7.4 Phosphate Buffer - Solubility, 200 mM Phosphate buffer pH 7.4) is < 15 mg/mL. As to `CC[C@H](C)[C@H](NC(=O)[C@H](CO)NC(=O)[C@H](Cc1ccc(O)cc1)NC(=O)[C@H](CC(=O)O)NC(=O)[C@H](CO)NC(=O)[C@@H](NC(=O)[C@H](Cc1ccccc1)NC(=O)[C@@H](NC(=O)CNC(=O)[C@H](CCC(=O)O)NC(=O)C(C)(C)NC(=O)[C@H](Cc1ccc(O)cc1)NC)[C@@H](C)O)[C@@H](C)CC)C(=O)N[C@@H](C)C(=O)N[C@@H](CC(C)C)C(=O)N[C@@H](CC(=O)O)C(=O)N[C@@H](CCCNC(=N)N)C(=O)NC(C)(C)C(=O)N[C@@H](C)C(=O)N[C@@H](CCC(N)=O)C(=O)NC(C)(C)C(=O)N[C@@H](CCCCNC(=O)COCCOCCNC(=O)COCCOCCNC(=O)CC[C@H](NC(=O)CC[C@H](NC(=O)CCCCCCCCCCCCCCCCC(=O)O)C(=O)O)C(=O)O)C(=O)N[C@@H](Cc1ccccc1)C(=O)N[C@H](C(=O)N[C@@H](CC(N)=O)C(=O)N[C@@H](Cc1c[nH]c2ccccc12)C(=O)N[C@@H](CC(C)C)C(=O)N[C@@H](CC(C)C)C(=O)N[C@@H](C)C(=O)N[C@@H](CCC(N)=O)C(=O)N[C@@H](CO)C(=O)NCC(=O)O)C(C)C` [Compound 42] (H-[NMeY][Aib]EGTFISDYSIALDR[Aib]AQ[Aib]K([AEEA-AEEA-γGlu-γGlu-C18 diacid])FVNWLLAQSG-OH), the solubility was ≥ 15 mg/mL (pH 7.4) and ≥ 30 mg/mL (pH 7.4, aqueous buffer).

Take `CC[C@H](C)[C@H](NC(=O)[C@H](CO)NC(=O)[C@H](Cc1ccc(O)cc1)NC(=O)[C@H](CC(C)C)NC(=O)[C@H](CO)NC(=O)[C@@H](NC(=O)[C@H](Cc1ccccc1)NC(=O)[C@@H](NC(=O)CNC(=O)[C@H](CCC(=O)O)NC(=O)C(C)(C)NC(=O)[C@H](Cc1ccc(O)cc1)NC)[C@@H](C)O)[C@@H](C)CC)C(=O)N[C@@H](C)C(=O)N[C@@H](CC(C)C)C(=O)N[C@@H](CC(=O)O)C(=O)N[C@@H](CCCNC(=N)N)C(=O)N[C@@H](CCCCNC(=O)CNC(=O)CNC(=O)CNC(=O)CNC(=O)CNC(=O)CNC(=O)CCCCCCCCCCCCCCCCC(=O)O)C(=O)N[C@@H](Cc1c[nH]cn1)C(=O)N[C@@H](CCC(N)=O)C(=O)NC(C)(C)C(=O)N[C@@H](CC(N)=O)C(=O)N[C@@H](Cc1ccccc1)C(=O)N[C@H](C(=O)N[C@@H](CC(N)=O)C(=O)N[C@@H](Cc1c[nH]c2ccccc12)C(=O)N[C@@H](CC(C)C)C(=O)N[C@@H](CC(C)C)C(=O)N[C@@H](C)C(=O)N[C@@H](CCC(N)=O)C(=O)N[C@@H](CCCNC(=N)N)C(=O)N1CCC[C@H]1C(=O)N[C@@H](CO)C(=O)N[C@@H](CO)C(=O)NCC(=O)N[C@@H](C)C(=O)N1CCC[C@H]1C(=O)N1CCC[C@H]1C(=O)N1CCC[C@H]1C(=O)N[C@@H](CO)C(=O)N[C@@H](CCCNC(=N)N)C(N)=O)C(C)C` [Compound 277]: where the note is “phosphate buffer, pH 7.4, aqueous buffer”, the solubility was < 15 mg/mL. In the case of `CC[C@H](C)[C@H](NC(=O)[C@H](Cc1ccccc1)NC(=O)[C@@H](NC(=O)CNC(=O)[C@H](CCC(=O)O)NC(=O)C(C)(C)NC(=O)[C@@H](N)Cc1ccc(O)cc1)[C@@H](C)O)C(=O)N[C@@H](CO)C(=O)N[C@@H](CC(=O)O)C(=O)N[C@@H](Cc1ccc(O)cc1)C(=O)N[C@@H](CO)C(=O)N[C@H](C(=O)NC(C)(C)C(=O)N[C@@H](CCCCNC(=O)CNC(=O)CNC(=O)CNC(=O)CNC(=O)CNC(=O)CCCCCCCCCCCCCCCCC(=O)O)C(=O)N[C@@H](CC(=O)O)C(=O)N[C@@H](CO)C(=O)N[C@@H](C)C(=O)N[C@@H](C)C(=O)N[C@@H](CCC(N)=O)C(=O)NC(C)(C)C(=O)N[C@@H](CC(=O)O)C(=O)N[C@@H](Cc1ccccc1)C(=O)N[C@H](C(=O)N[C@@H](CC(N)=O)C(=O)N[C@@H](Cc1c[nH]c2ccccc12)C(=O)N[C@@H](CC(C)C)C(=O)N[C@@H](CC(C)C)C(=O)N[C@@H](C)C(=O)N[C@@H](CCC(N)=O)C(=O)N[C@@H](CCCNC(=N)N)C(=O)NCC(=O)O)C(C)C)[C@@H](C)CC` [Compound 151], the solubility (pH 7.4) is ≥ 15 mg/mL and the solubility (pH 7.4, aqueous buffer) was ≥ 30 mg/mL. Take `CC[C@H](C)[C@H](NC(=O)[C@H](CO)NC(=O)[C@H](Cc1ccc(O)cc1)NC(=O)[C@H](CC(=O)O)NC(=O)[C@H](CO)NC(=O)[C@@H](NC(=O)[C@H](Cc1ccccc1)NC(=O)[C@@H](NC(=O)CNC(=O)[C@H](CCC(=O)O)NC(=O)C(C)(C)NC(=O)[C@@H](N)Cc1ccc(O)cc1)[C@@H](C)O)[C@@H](C)CC)C(=O)N[C@@H](C)C(=O)N[C@@H](CC(C)C)C(=O)N[C@@H](CC(=O)O)C(=O)N[C@@H](CCCCN)C(=O)NC(C)(C)C(=O)N[C@@H](CCCCNC(=O)COCCOCCNC(=O)COCCOCCNC(=O)CC[C@H](NC(=O)CCCCCCCCCCCCCCCCC(=O)O)C(=O)O)C(=O)N[C@@H](CCC(N)=O)C(=O)N[C@@H](C)C(=O)N[C@@H](CC(N)=O)C(=O)N[C@@H](Cc1ccccc1)C(=O)N[C@H](C(=O)N[C@@H](CCC(=O)O)C(=O)N[C@@H](Cc1c[nH]c2ccccc12)C(=O)N[C@@H](CC(C)C)C(=O)N[C@@H](CC(C)C)C(=O)N[C@@H](C)C(=O)N[C@@H](CCC(N)=O)C(=O)N[C@@H](CCCNC(=N)N)C(=O)NCC(=O)O)C(C)C` [Compound 163] (H-Y[Aib]EGTFISDYSIALDK[Aib]K([AEEA-AEEA-γGlu-C18 diacid])QANFVEWLLAQRG-OH): the solubility is, setting by setting: (pH 7.4) ≥ 15 mg/mL; (pH 7.4, aqueous buffer) ≥ 30 mg/mL.

As to `CC[C@H](C)[C@H](NC(=O)[C@H](CO)NC(=O)[C@H](Cc1ccc(O)cc1)NC(=O)[C@H](CC(=O)O)NC(=O)[C@H](CO)NC(=O)[C@@H](NC(=O)[C@H](Cc1ccccc1)NC(=O)[C@@H](NC(=O)CNC(=O)[C@H](CCC(=O)O)NC(=O)C(C)(C)NC(=O)[C@@H](N)Cc1ccc(O)cc1)[C@@H](C)O)[C@@H](C)CC)C(=O)N[C@@H](C)C(=O)N[C@@H](CC(C)C)C(=O)N[C@@H](CC(=O)O)C(=O)N[C@@H](CCCCN)C(=O)N[C@@H](C)C(=O)N[C@@H](C)C(=O)N[C@@H](CCC(N)=O)C(=O)NC(C)(C)C(=O)N[C@@H](CCCCNC(=O)COCCOCCNC(=O)COCCOCCNC(=O)CC[C@H](NC(=O)CC[C@H](NC(=O)CCCCCCCCCCCCCCCC(=O)O)C(=O)O)C(=O)O)C(=O)N[C@@H](Cc1ccccc1)C(=O)N[C@H](C(=O)N[C@@H](CCC(=O)O)C(=O)N[C@@H](Cc1c[nH]c2ccccc12)C(=O)N[C@@H](CC(C)C)C(=O)N[C@@H](CC(C)C)C(=O)N[C@@H](C)C(=O)N[C@@H](CCC(N)=O)C(=O)N[C@@H](CCCNC(=N)N)C(=O)NCC(=O)O)C(C)C` [Compound 133] (H-Y[Aib]EGTFISDYSIALDKAAQ[Aib]K([AEEA-AEEA-γGlu-γGlu-C17 diacid])FVEWLLAQRG-OH), the solubility reads like this: (pH 7.4) ≥ 15 mg/mL; (pH 7.4, aqueous buffer) ≥ 30 mg/mL. Taken in the same sequence, the figures for `CC[C@H](C)[C@H](NC(=O)[C@H](Cc1ccccc1)NC(=O)[C@@H](NC(=O)CNC(=O)[C@H](CCC(=O)O)NC(=O)C(C)(C)NC(=O)[C@H](Cc1ccc(O)cc1)NC)[C@@H](C)O)C(=O)N[C@@H](CO)C(=O)N[C@@H](CC(=O)O)C(=O)N[C@@H](Cc1ccc(O)cc1)C(=O)N[C@@H](CO)C(=O)N[C@H](C(=O)NC(C)(C)C(=O)N[C@@H](CC(C)C)C(=O)N[C@@H](CC(=O)O)C(=O)N[C@@H](CCCNC(=N)N)C(=O)NC(C)(C)C(=O)N[C@@H](C)C(=O)N[C@@H](CCC(N)=O)C(=O)NC(C)(C)C(=O)N[C@@H](CCCCNC(=O)COCCOCCNC(=O)COCCOCCNC(=O)CC[C@H](NC(=O)CC[C@H](NC(=O)CCCCCCCCCCCCCCCCC(=O)O)C(=O)O)C(=O)O)C(=O)N[C@@H](Cc1ccccc1)C(=O)N[C@H](C(=O)N[C@@H](CCC(=O)O)C(=O)N[C@@H](Cc1c[nH]c2ccccc12)C(=O)N[C@@H](CC(C)C)C(=O)N[C@@H](CC(C)C)C(=O)N[C@@H](C)C(=O)N[C@@H](CCC(N)=O)C(=O)N[C@@H](CCCCN)C(=O)NCC(=O)O)C(C)C)[C@@H](C)CC` [Compound 110] (H-[NMeY][Aib]EGTFISDYSI[Aib]LDR[Aib]AQ[Aib]K([AEEA-AEEA-γGlu-γGlu-C18 diacid])FVEWLLAQKG-OH) were ≥ 15 mg/mL and ≥ 60 mg/mL. Turning to `CC[C@H](C)[C@H](NC(=O)[C@H](CO)NC(=O)[C@H](Cc1ccc(O)cc1)NC(=O)[C@H](CC(=O)O)NC(=O)[C@H](CO)NC(=O)[C@@H](NC(=O)[C@H](Cc1ccccc1)NC(=O)[C@@H](NC(=O)CNC(=O)[C@H](CCC(=O)O)NC(=O)C(C)(C)NC(=O)[C@H](Cc1ccc(O)cc1)NC)[C@@H](C)O)[C@@H](C)CC)C(=O)N[C@@H](C)C(=O)N[C@@H](CC(C)C)C(=O)N[C@@H](CC(=O)O)C(=O)N[C@@H](CCCNC(=N)N)C(=O)NC(C)(C)C(=O)N[C@@H](Cc1c[nH]cn1)C(=O)N[C@@H](CCC(N)=O)C(=O)NC(C)(C)C(=O)N[C@@H](CC(N)=O)C(=O)N[C@@H](Cc1ccccc1)C(=O)N[C@H](C(=O)N[C@@H](CC(N)=O)C(=O)N[C@@H](Cc1c[nH]c2ccccc12)C(=O)N[C@@H](CC(C)C)C(=O)N[C@@H](CC(C)C)C(=O)N[C@@H](C)C(=O)N[C@@H](CCCCNC(=O)COCCOCCNC(=O)COCCOCCNC(=O)CC[C@H](NC(=O)CC[C@H](NC(=O)CCCCCCCCCCCCCCCC(=O)O)C(=O)O)C(=O)O)C(=O)N[C@@H](CCCNC(=N)N)C(N)=O)C(C)C` [Compound 258] (H-[NMeY][Aib]EGTFISDYSIALDR[Aib]HQ[Aib]NFVNWLLAK([AEEA-AEEA-γGlu-γGlu-C17 diacid])R-NH2), the solubility (pH 7.4, aqueous buffer) is ≥ 6 mg/mL.
